The test system of one assay is CgtE. The experiment in a line: Characterization of CgtE enzymatic activity (pH, divalent cations, truncation). The class given is biochemical, Campylobacter jejuni LIO87. The conditions noted are these: divalent cations necessary for activity. An excerpt:
CgtE enzymatic activity was characterized further. CgtE activity was optimal from pH 7 to 7.5.

The test system of a further assay is CgtE (CJL-107). As to the kind of experiment: Substrate specificity of CgtE (CJL-107), acceptor and donor substrates. Format: biochemical, Campylobacter jejuni LIO87. As to conditions: for Activity: enzyme CgtE (CJL-107). An excerpt: A nucleic acid encoding a CgtE polypeptide, or a subsequence thereof, can be characterized by assaying for the expressed product. Assays based on the detection of the physical, chemical, or immunological properties of the expressed protein can be used. For example, one can identify a cloned CgtE nucleic acid B, by the ability of a protein encoded by the nucleic acid to catalyze the transfer of a galactose moiety from a donor substrate to an acceptor substrate. In one method, capillary electrophoresis is employed to detect the reaction products. This highly sensitive assay involves using either saccharide or disaccharide aminophenyl derivatives which are labeled with fluorescein as described in Wakarchuk et al. (1996) J. Biol. Chem. 271 (45): 28271-276. To assay for CgtE activity, Galα-Lac-FCHASE or GalNAc-α-FCHASE is used as a substrate. The reaction products of other glycosyltransferases can be detected using capillary electrophoresis, e.g., to assay for a Neisseria lgtC enzyme, either FCHASE-AP-Lac or FCHASE-AP-Gal can be used, whereas for the Neisseria lgtB enzyme an appropriate reagent is FCHASE-AP-GlcNAc (Wakarchuk, supra). To assay for α2,8-sialyltransferase, GM3-FCHASE is used as a substrate. See, e.g., U.S. Pat. No. 6,503,744, which is herein incorporated by reference. Other methods for detection of oligosaccharide reaction products include thin layer chromatography and GC/MS and are disclosed in U.S. Pat. No. 6,503,744, which is herein incorporated by reference.
CgtE (CJL-107), sequence (as listed by the source): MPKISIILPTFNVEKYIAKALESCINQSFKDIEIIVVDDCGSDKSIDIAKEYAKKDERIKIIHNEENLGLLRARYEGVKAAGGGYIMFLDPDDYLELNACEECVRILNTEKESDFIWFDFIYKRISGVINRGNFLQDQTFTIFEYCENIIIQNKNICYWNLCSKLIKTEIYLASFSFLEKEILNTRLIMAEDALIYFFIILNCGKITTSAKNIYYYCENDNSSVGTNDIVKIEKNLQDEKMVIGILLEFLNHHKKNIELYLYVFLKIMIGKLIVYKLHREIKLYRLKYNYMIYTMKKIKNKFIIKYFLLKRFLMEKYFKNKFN
CgtE used both Galα-Lac-FCHASE and GalNAc-α-FCHASE as acceptor substrate. CgtE enzymatic activity was higher when Galα-Lac-FCHASE was used as the acceptor substrate.

The results in this text go back to patent US8278069B2, “Identification of a β-1,3-N-acetylgalactosaminyltransferase (CGTE) from Campylobacter jejuni LIO87” (National Research Council of Canada, priority 2005, dated 2012).

On to `[Cl][Mn][Cl]` [MnCl2], for which the “CgtE activity with divalent cation relative to MgCl2” value with CgtE is “two-fold higher”.
Turning to GalNAc-α-FCHASE, the Activity in the assay on CgtE (CJL-107) (donor UDP-Gal) is on record as 0.6 mU/mL; with CgtE (CJL-107) (donor UDP-GalNAc), 0.3 mU/mL.
Galα-Lac-FCHASE: the “CgtE enzymatic activity, comparison of acceptor substrates” value with CgtE (CJL-107) (Galα-Lac-FCHASE versus GalNAc-α-FCHASE as acceptor) is given as “higher”. Besides, the results for the Activity in the assay on CgtE (CJL-107) (donor UDP-Gal) and in the assay on CgtE (CJL-107) (donor UDP-GalNAc) were 7.0 mU/mL and 63.5 mU/mL, respectively.
